Measured values published in patent US20260001834A1, “COMPOUND OR SALT THEREOF, LIPID COMPOSITION, PHARMACEUTICAL COMPOSITION, AND DELIVERY CARRIER” (FUJIFILM Corporation, priority 2023, published 2026).

Key:
[1] = Particle diameter and polydispersity index (PdI) of mRNA-encapsulating lipid nanoparticles; assay type: physicochemical; conditions: EPO mRNA-encapsulating lipid nanoparticles, compound:DSPC:cholesterol:DMG-PEG2000=50:10:38.5:1.5; diluted with PBS
Method: (§1) The compounds shown in Table 9, 1,2-distearoyl-sn-glycero-3-phosphocholine (product name: COATSOME® MC-8080; NOF corporation) (hereinafter, DSPC), cholesterol (product name: Cholesterol HP; Nippon Seika Co., Ltd.), and 1,2-dimyristoyl-rac-glycero-3-(methylpolyoxyethylene 2000) (hereinafter, DMG-PEG2000) (product name: SUNBRIGHT® GM-020; NOF corporation) were dissolved in ethanol at a molar ratio (mol %) of compounds shown in Table 9:1,2-distearoyl-sn-glycero-3-phosphocholine:cholesterol:DMG-PEG2000=50:10:38.5:1.5 such that the total lipid concentration was 12.5 mmol/L, thereby obtaining an oil phase.
(§2) EPO mRNA (product name: CleanCap EPO mRNA (5moU); TriLink) was diluted with 50 mmol/L citrate buffer having a pH 4.0 such that the weight ratio of total lipid concentration to mRNA concentration is about 20:1, thereby obtaining a water phase. Then, the water phase and the oil phase were mixed together using NanoAssemblr (Precision NanoSystems) such that the volume ratio of water phase:oil phase was 3:1, and the mixed solution was 2-fold diluted with phosphate buffered physiological saline (PBS) or water, thereby obtaining a dispersion liquid of mRNA lipid nanoparticles. The dispersion liquid was dialyzed with 20 mM Tris buffer solution containing 8% sucrose using a dialysis cassette (Slide-A-Lyzer G2, MWCO: 10 kD, Thermo Fisher Scientific) to remove ethanol, thereby obtaining EPO mRNA-encapsulating lipid nanoparticles.
The particle diameter and the polydispersity index (PdI) of the mRNA-encapsulating lipid nanoparticles were obtained by measuring a dispersion liquid of lipid nanoparticles diluted with phosphate buffered physiological saline (PBS) using a particle size analyzer NanoSAQLA (Otsuka Electronics Co., Ltd.).

[2] = Encapsulation rate of mRNA in lipid nanoparticles; assay type: physicochemical; conditions: EPO mRNA-encapsulating lipid nanoparticles, compound:DSPC:cholesterol:DMG-PEG2000=50:10:38.5:1.5
Method: as §1, §2
<Evaluation of Encapsulation Rate of mRNA> (Quantification of Total mRNA Concentration)
EPO mRNA was diluted with MilliQ water to prepare a diluted sample in 2-fold dilution series from 100 μg/mL to 3.1 μg/mL, and a standard solution for calibration was prepared. 50 μL of the standard solution for calibration or the mRNA lipid nanoparticles was mixed with 450 μL of methanol to prepare a measurement solution.
The absorbance of each measurement solution at 260 nm and 330 nm was measured using a UV plate reader (Multiskan Go, Thermo Fisher Scientific), the absorbance at 330 nm was subtracted from the absorbance at 260 nm, and the result was used as the absorbance of each measurement solution. The total water phase nucleic acid concentration was calculated from the calibration curve using the absorbance of each sample measurement solution.
(Quantification of mRNA Concentration in Outer Water Phase)
The concentration of the outer water phase nucleic acid was quantified by a standard addition method using a QuanT-iT RiboGreen RNA Assay Kit (Thermo Fisher Scientific). First, a 20×TE buffer included in the above kit was diluted with water, thereby obtaining a 1×TE buffer. TE represents Tris/EDTA (ethylenediaminetetraacetic acid). EPO mRNA was diluted with a TE buffer such that the final concentration was 0 to 400 ng/mL to prepare a nucleic acid diluted series. 10 μL of mRNA lipid nanoparticles diluted 5-fold with TE buffer and 90 μL of a nucleic acid dilution series were mixed in a 96-well plate, 100 μL of a Ribogreen reagent diluted 200-fold with TE buffer was added to each well, and then fluorescence (excitation wavelength: 485 nm, fluorescence wavelength: 535 nm) was measured using a fluorescence plate reader (Infinite 200 Pro M nano+, TECAN). From the obtained results, the outer water phase nucleic acid concentration of each measurement solution was calculated according to the standard addition method.
(Calculation of Encapsulation Rate)
By using the quantification results of the total mRNA concentration and the mRNA concentration in the outer water phase that were obtained through the above steps, the mRNA encapsulation rate of the mRNA lipid nanoparticles was calculated according to the following Equation.

ICR mice [3] = assay: EPO expression level in mice after intravenous EPO mRNA lipid nanoparticles (human EPO ELISA of plasma); assay type: in vivo; conditions: mRNA dosage 0.1 mg/kg, plasma 6 hours after administration, Comparative Example set to 1
Method: as §1, §2
(§3) The dispersion liquid of mRNA lipid nanoparticles prepared in above <Preparation of EPO mRNA-encapsulating lipid nanoparticles> was intravenously administered to ICR mice at a mRNA dosage of 0.1 mg/kg. 6 hours after the administration, blood was collected from the caudal vena cava, thereby obtaining plasma. The human EPO […] was quantified by using the obtained blood plasma and Erythropoietin (EPO) Human Elisa Kit (Abcam.plc). The quantitative value is described as a relative amount of EPO protein in a case where Comparative Example is set to 1.

ICR mice [4] = assay: EPO expression level in mice, dose dependency (human EPO ELISA of plasma); assay type: in vivo; conditions: intravenous, plasma 6 hours after administration
Method: as §1, §2
as §3, with “0.1, 0.5, and 1” for “0.1”, “where the amount of EPO protein at the time of 0.1 mg/kg administration in” for “where”

Molecule | Particle diameter (nm) [1] | PdI [1] | Nucleic acid encapsulation rate [2] | Relative amount of EPO protein (with respect to Comparative Example 1) (ICR mice [3]) | Relative amount of EPO protein (with respect to Comparative Example 1 at 0.1 mg/kg) (ICR mice [4]; mRNA dosage 0.1 mg/kg) | Relative amount of EPO protein (with respect to Comparative Example 1 at 0.1 mg/kg) (ICR mice [4]; mRNA dosage 0.5 mg/kg) | Relative amount of EPO protein (with respect to Comparative Example 1 at 0.1 mg/kg) (ICR mice [4]; mRNA dosage 1.0 mg/kg)
CCCCCCCC(=O)OCCN(CCOC(=O)OC(CCCCCC)CCCC(=O)OCC(CCCC)CCCCCC)CCN(CC)CC (stereo not drawn) [Comparative Example, 2-butyloctyl 3-ethyl-12-hexyl-6-(2-(octanoyloxy)ethyl)-10-oxo-9,11-dioxa-3,6-diazahexadecan-16-oate, reference compound] | 161 nm | 0.07 | 50% | 1.00 | 1.00 | 0.25 | 1.10
CCCCCCCOC(=O)CCCC(CCCCCC)OC(=O)OCCN(CCOC(=O)C(CCCCCCC)CCCCCCC)CCN(CC)CC (stereo not drawn) [Compound 3, heptyl 3-ethyl-6-(2-((2-heptylnonanoyl)oxy)ethyl)-12-hexyl-10-oxo-9,11-dioxa-3,6-diazahexadecan-16-oate] | 105 nm | 0.06 | 84% | 3.16 | 1.91 | 17.26 | 27.22
CCCCCCCCC(CCCCCCCC)C(=O)OCCN(CCCN(CC)CC)CCOC(=O)OC(CCCCCC)CCCCC(=O)OCCCCCCC (stereo not drawn) [Compound 23, heptyl 3-ethyl-13-hexyl-7-(2-((2-octyldecanoyl)oxy)ethyl)-11-oxo-10,12-dioxa-3,7-diazaoctadecan-1 8-oate] | 85 nm | 0.11 | 95% | 4.71 | 4.97 | 25.74 | 43.74
CCCCCCCCC(CCCCCC)C(=O)OCCN(CCCN(CC)CC)CCOC(=O)OC(CCCCCC)CCCCC(=O)OCCCCCCC (stereo not drawn) [Compound 24, heptyl 3-ethyl-13-hexyl-7-(2-((2-hexyldecanoyl)oxy)ethyl)-11-oxo-10,12-dioxa-3,7-diazaoctadecan-18-oate] | 98 nm | 0.13 | 94% | 6.54 | 4.65 | 26.81 | 45.73
CCCCCCCOC(=O)CCCCC(CCCCCC)OC(=O)OCCN(CCCN(CC)CC)CCOC(=O)CC(CCCCCCC)CCCCCCC (stereo not drawn) [Compound 25, heptyl 3-ethyl-7-(2-((3-heptyldecanoyl)oxy)ethyl)-13-hexyl-11-oxo-10,12-dioxa-3,7-diazaoctadecan-18-oate] | 102 nm | 0.16 | 94% | 4.77 | – | – | –
heptyl 3-ethyl-12-hexyl-6-(2-((2-hexyloctanoyl)oxy)ethyl)-10-oxo-9,11-dioxa-3,6-diazahexadecan-1 6-oate [Compound 5] | 118 nm | 0.07 | 79% | 2.28 | – | – | –
